Among the data in the Kinase Knowledgebase extract (Sharma et al. 2016) are IC50 values, retold here.

Experiment [1] concerns the target MAPK14 (human) (UniProt Q16539). As to the kind of experiment: Assessment of MAPK14 Kinase Activity.
The target is the same in experiment [2]. Nature of the experiment: Inhibition of MAPK14 Kinase Activity.

A value given as a limit tells only on which side of the number the result lay.

Sequence of MAPK14 (human) (Q16539 whole entry, looked up): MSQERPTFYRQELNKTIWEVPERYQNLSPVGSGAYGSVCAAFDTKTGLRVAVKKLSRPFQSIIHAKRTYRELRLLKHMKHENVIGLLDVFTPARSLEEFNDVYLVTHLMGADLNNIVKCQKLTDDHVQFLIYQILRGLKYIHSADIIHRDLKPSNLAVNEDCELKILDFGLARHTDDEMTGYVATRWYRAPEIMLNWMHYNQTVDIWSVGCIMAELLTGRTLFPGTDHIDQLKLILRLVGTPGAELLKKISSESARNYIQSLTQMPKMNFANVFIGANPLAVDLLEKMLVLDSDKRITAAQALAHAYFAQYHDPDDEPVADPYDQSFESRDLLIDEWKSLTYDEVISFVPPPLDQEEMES

As to `Cc1c(F)cc(C(=O)NC2CC2)cc1-c1ccc(C(=O)N[C@@H](C)C(C)C)c[n+]1[O-]`, the IC50 at MAPK14 (human) [1] and against MAPK14 (human) [2] was under 10 µM each time.

As to `Cc1c(F)cc(C(=O)NC2CC2)cc1-c1ccc(C(=O)N[C@@H](C)C(C)(C)C)c[n+]1[O-]`, the half-maximal inhibitory concentration (IC50) at MAPK14 (human) [1] and at MAPK14 (human) [2] was under 10 µM in each case. With `Cc1cc(C)cc(CNC(=O)c2ccc(-c3cc(C(=O)NC4CC4)cc(F)c3C)[n+]([O-])c2)c1`, the IC50 against MAPK14 (human) [2] is under 10 µM. With `Cc1c(F)cc(C(=O)NC2CC2)cc1-c1ccc(C(=O)NC(C)(C)C)c[n+]1[O-]`, the IC50 against MAPK14 (human) [1] and against MAPK14 (human) [2] was under 10 µM in each case. The molecule `Cc1c(F)cc(C(=O)NC2CC2)cc1-c1ccc(C(=O)NCC(C)C)c[n+]1[O-]` gave an IC50 against MAPK14 (human) [2] of under 10 µM. With `Cc1c(F)cc(C(=O)NC2CC2)cc1-c1ccc(C(=O)N[C@H](C)C(C)(C)C)c[n+]1[O-]`, the concentration for half-maximal inhibition (IC50) against MAPK14 (human) [2] was under 10 µM. In the case of `Cc1c(F)cc(C(=O)NC2CC2)cc1-c1ccc(C(=O)NCc2cc(C(F)(F)F)ccc2F)c[n+]1[O-]`, the concentration for half-maximal inhibition (IC50) against MAPK14 (human) [1] and against MAPK14 (human) [2] was under 10 µM throughout. As for `Cc1c(F)cc(C(=O)NC2CC2)cc1-c1ccc(C(=O)NCc2cc(F)ccc2C(F)(F)F)c[n+]1[O-]`, the half-inhibitory concentration (IC50) against MAPK14 (human) [2] was under 10 µM.
